Experiment [1] addresses C-X-C chemokine receptor type 4 (Mus musculus, UniProt P70658). Nature of the experiment: Competition Binding Assay. The method, then: (§1) For IC50 determination using Jurkat or Eμ-Myc1080 cells, samples containing 2×10^5 cells (or 4×10^5 cells; exact cell number used in the respective evaluations is given in the results section) in Hank's balanced salt solution (HBSS)/1% Bovine Serum Albumin (BSA) were incubated with 100.000 cpm of the respective radioligand (approx. 0.1 nM) in the presence of increasing concentrations (10−11 to 10−5 M) of the respective peptide of interest (n=3 per concentration). The total sample volume was 250 μL. After incubation at room temperature (RT) for 120 min with gentle agitation (200 mot/min), the tubes were centrifuged (5 min, 450g, Megafuge 1.0, Heraeus Thermo Scientific) and the supernatant was carefully removed. After washing twice with 400 μL of cold HBSS, the amount of cell-bound radioligand was quantified using a […]-counter.[0403]In the case of the adherent C6 glioma cells, cells were harvested using Trypsin/EDTA (0.05 % and 0.02%) in PBS one day prior to the experiment, centrifuged and resuspended with culture medium to a concentration of app. 150.000 cells/mL. The suspension was transferred into PLL-coated twenty-four-well plates (1 mL/well, Greiner, Solingen. Germany) and placed in the incubator overnight. On the day of the experiment, the culture medium was removed and the cells were washed with 250 μL of HBSS before being left to equilibrate in 200 μL of HBSS (1% BSA) at 37° C. for a minimum of 15 min before the experiment. Then, cells were incubated with 100.000 cpm of the respective radioligand (approx. 0.1 nM) in the presence of increasing concentrations (10−11 to 10−5 M) of the respective compound of interest (n=3 per concentration). The total sample volume was 250 μL. After incubation at room temperature (RT) for 120 min, the supernatant was removed and cells were washed twice with 200 μL of cold HBSS. Then, cells were lysed using 250 μL of 1 N NaOH, the lysate was transferred to vials and combined with 250 μL of HBSS used for rinsing the wells. Quantification of the amount of free and bound activity was performed in a […]-counter.

In experiment [2] the target is C-X-C chemokine receptor type 4 (Homo sapiens, UniProt P61073). Nature of the experiment: Competition Binding Assay. The method, then:
as §1

Starred links: 1 amine or outer side, 2 acyl side, 3 side chain; linkers in the order of their positions; H or OH if unused. Non-standard residues stand in square brackets, D forms with d. Residues, ends and D or L forms follow the SMILES beside them. Groups on a side chain read outwards from the residue. *: point of attachment. dAla(N-(6-guanidinohexyl)) = C[C@@H](NCCCCCCNC(=N)N)C(=O)O; X1 = C[C@H](C(=O)[*:2])N(CCCCCCNC(=N)NCCCCCCN[*:3])[*:1]; Propanoyl(3-PO3H2) = O=C(CCP(=O)(O)O)*; 2Nal = N[C@@H](Cc1ccc2ccccc2c1)C(=O)O; AEEA = NCCOCCOCC(=O)O; Ahx = NCCCCCC(=O)O A value given as a limit tells only on which side of the number the result lay.

Results on 18 molecules are retold here after BindingDB's records for patent US20240293587 (Technische University Munchen, 2024).

By IC50 is commonly meant the concentration that inhibits the measured activity by half. Low values mean inhibition by little substance, high ones a need for much substance.

Sequence of C-X-C chemokine receptor type 4 (Mus musculus, UniProt P70658) (P70658 whole entry): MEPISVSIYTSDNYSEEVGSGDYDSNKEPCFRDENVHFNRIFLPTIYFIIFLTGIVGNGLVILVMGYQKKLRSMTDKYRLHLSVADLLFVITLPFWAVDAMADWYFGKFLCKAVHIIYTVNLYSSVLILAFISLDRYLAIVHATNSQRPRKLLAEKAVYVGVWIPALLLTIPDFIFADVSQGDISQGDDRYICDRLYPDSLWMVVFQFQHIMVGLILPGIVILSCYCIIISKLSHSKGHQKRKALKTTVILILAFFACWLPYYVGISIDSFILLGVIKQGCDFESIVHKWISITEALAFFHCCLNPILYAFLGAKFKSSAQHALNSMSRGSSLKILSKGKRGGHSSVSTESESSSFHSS
Sequence of C-X-C chemokine receptor type 4 (Homo sapiens, UniProt P61073) (P61073 whole entry): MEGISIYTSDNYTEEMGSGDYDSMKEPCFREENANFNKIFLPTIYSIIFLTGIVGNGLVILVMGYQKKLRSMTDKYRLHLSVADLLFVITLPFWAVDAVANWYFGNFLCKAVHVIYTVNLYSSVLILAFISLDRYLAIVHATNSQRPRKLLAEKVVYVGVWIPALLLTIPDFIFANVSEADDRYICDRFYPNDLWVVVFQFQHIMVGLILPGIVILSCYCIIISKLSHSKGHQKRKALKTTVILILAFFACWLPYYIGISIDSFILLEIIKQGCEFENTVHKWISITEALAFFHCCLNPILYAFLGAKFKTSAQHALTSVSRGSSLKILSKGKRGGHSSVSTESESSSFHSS

As for `CC(=O)NC(=N)NCCCCCCN1C(=O)[C@@H](Cc2ccc(O)cc2)NC(=O)CNC(=O)[C@H](Cc2ccc3ccccc3c2)NC(=O)[C@H](CCCNC(=N)N)NC(=O)[C@H]1C` [US20240293587, Compound P7], the IC50 amounted to 1.6 nM in experiment [1] and 2.5 nM in experiment [2].

In turn, `CC(=O)N[C@@H](CCCCNC(=O)CSC[C@H]1NC(=O)[C@H](Cc2ccc3ccccc3c2)NC(=O)[C@H](CCCNC(=N)N)NC(=O)[C@@H](C)N(CCCCCCNC(=N)N)C(=O)[C@@H](Cc2ccc(O)cc2)NC1=O)C(N)=O` [US20240293587, Compound Pc1] yielded an IC50 in experiment [2] of 61 nM. With `CC(=O)NCc1ccc(CNC(=O)CSC[C@H]2NC(=O)[C@H](Cc3ccc4ccccc4c3)NC(=O)[C@H](CCCNC(=N)N)NC(=O)[C@@H](C)N(CCCCCCNC(=N)N)C(=O)[C@@H](Cc3ccc(O)cc3)NC2=O)cc1` [US20240293587, Compound Pc4], in experiment [2], the IC50 was found to be 53 nM. As for `C#CCCCCNC(=N)NCCCCCCN1C(=O)[C@@H](Cc2ccc(O)cc2)NC(=O)CNC(=O)[C@H](Cc2ccc3ccccc3c2)NC(=O)[C@H](CCCNC(=N)N)NC(=O)[C@H]1C` [US20240293587, Compound P6], the IC50 was found to be 6.2 nM in experiment [1] and 3.2 nM in experiment [2]. `CC(=O)NCCCCCCNC(=N)NCCCCCCN1C(=O)[C@@H](Cc2ccc(O)cc2)NC(=O)CNC(=O)[C@H](Cc2ccc3ccccc3c2)NC(=O)[C@H](CCCNC(=N)N)NC(=O)[C@H]1C` [US20240293587, Compound P5] gave an IC50 in experiment [2] of 9.8 nM. `C[C@@H]1C(=O)N[C@@H](CCCNC(=N)N)C(=O)N[C@@H](Cc2ccc3ccccc3c2)C(=O)NCC(=O)N[C@H](Cc2ccc(O)cc2)C(=O)N1CCCCCCNC(=N)NCCCCCCNC(=O)CCCCCNC(=O)CCCCCNC(=O)CCP(=O)(O)O` [US20240293587, Compound P5k] (cyclo([2Nal]G[dY][X1]([Ahx-Ahx-Propanoyl(3-PO3H2)])R)) gave a concentration for half-maximal inhibition (IC50) in experiment [2] of 90 nM. As for `C#CCCC(=O)NC(=N)NCCCCCCN1C(=O)[C@@H](Cc2ccc(O)cc2)NC(=O)CNC(=O)[C@H](Cc2ccc3ccccc3c2)NC(=O)[C@H](CCCNC(=N)N)NC(=O)[C@H]1C` [US20240293587, Compound P10], the IC50 came to 5.5 nM in experiment [1] and 2 nM in experiment [2]. Take `C[C@@H]1C(=O)N[C@@H](CCCNC(=N)N)C(=O)N[C@@H](Cc2ccc3ccccc3c2)C(=O)NCC(=O)N[C@H](Cc2ccc(O)cc2)C(=O)N1CCCCCCNC(=N)N` [US20240293587, Compound R] (cyclo([dY][dAla(N-(6-guanidinohexyl))]R[2Nal]G)): in experiment [2], the IC50 was 0.8 nM. `CC(=O)NCc1cccc(CNC(=O)CSC[C@H]2NC(=O)[C@H](Cc3ccc4ccccc4c3)NC(=O)[C@H](CCCNC(=N)N)NC(=O)[C@@H](C)N(CCCCCCNC(=N)N)C(=O)[C@@H](Cc3ccc(O)cc3)NC2=O)c1` [US20240293587, Compound Pc5] returned an IC50 in experiment [2] of 14 nM.

Molecule `C[C@@H]1C(=O)N[C@@H](CCCNC(=N)N)C(=O)N[C@@H](Cc2ccc3ccccc3c2)C(=O)NCC(=O)N[C@H](Cc2ccc(O)cc2)C(=O)N1CCCCCCNC(=N)NCCCCCCNC(=O)COCCOCCNC(=O)COCCOCCNC(=O)CCP(=O)(O)O` [US20240293587, Compound P5m] (cyclo([2Nal]G[dY][X1]([AEEA-AEEA-Propanoyl(3-PO3H2)])R)) had an IC50 in experiment [2] of 52 nM. For the molecule `CC(=O)NCCCCCC(=O)NC(=N)NCCCCCCN1C(=O)[C@@H](Cc2ccc(O)cc2)NC(=O)CNC(=O)[C@H](Cc2ccc3ccccc3c2)NC(=O)[C@H](CCCNC(=N)N)NC(=O)[C@H]1C` [US20240293587, Compound P9], the concentration for half-maximal inhibition (IC50) in experiment [2] worked out at 78.7 nM. In the case of `C[C@@H]1C(=O)N[C@@H](CCCNC(=N)N)C(=O)N[C@@H](Cc2ccc3ccccc3c2)C(=O)N[C@H](CSCC(=O)NCc2cccc(CNC(=O)CN3CCN(CC(=O)O)CCN(CC(=O)O)CCN(CC(=O)O)CC3)c2)C(=O)N[C@H](Cc2ccc(O)cc2)C(=O)N1CCCCCCNC(=N)N` [US20240293587, Compound Pc5a], the half-inhibitory concentration (IC50) in experiment [2] was 78 nM.

For `CC(=O)NCCCCCCSC[C@H]1NC(=O)[C@H](Cc2ccc3ccccc3c2)NC(=O)[C@H](CCCNC(=N)N)NC(=O)[C@@H](C)N(CCCCCCNC(=N)N)C(=O)[C@@H](Cc2ccc(O)cc2)NC1=O` [US20240293587, Compound Pc3], in experiment [2], the half-inhibitory concentration (IC50) is above 400 nM. On the same count and under the same terms, with `CC(=O)NCCCCCNC(=N)NCCCCCCN1C(=O)[C@@H](Cc2ccc(O)cc2)NC(=O)CNC(=O)[C@H](Cc2ccc3ccccc3c2)NC(=O)[C@H](CCCNC(=N)N)NC(=O)[C@H]1C` [US20240293587, Compound P4] the figure was 32.1 nM; with `CC(=O)NCCNC(=N)NCCCCCCN1C(=O)[C@@H](Cc2ccc(O)cc2)NC(=O)CNC(=O)[C@H](Cc2ccc3ccccc3c2)NC(=O)[C@H](CCCNC(=N)N)NC(=O)[C@H]1C` [US20240293587, Compound P1], 3.1 nM. Same read-out and setting: with `CC(=O)NCC(=O)NC(=N)NCCCCCCN1C(=O)[C@@H](Cc2ccc(O)cc2)NC(=O)CNC(=O)[C@H](Cc2ccc3ccccc3c2)NC(=O)[C@H](CCCNC(=N)N)NC(=O)[C@H]1C` [US20240293587, Compound P8] the figure was 13.2 nM. As for `CC(=O)NCCCCCCNC(=O)CSC[C@H]1NC(=O)[C@H](Cc2ccc3ccccc3c2)NC(=O)[C@H](CCCNC(=N)N)NC(=O)[C@@H](C)N(CCCCCCNC(=N)N)C(=O)[C@@H](Cc2ccc(O)cc2)NC1=O` [US20240293587, Compound Pc2], in experiment [2], the IC50 came to 57 nM. Same read-out and setting: with `CC(=O)NCCCNC(=N)NCCCCCCN1C(=O)[C@@H](Cc2ccc(O)cc2)NC(=O)CNC(=O)[C@H](Cc2ccc3ccccc3c2)NC(=O)[C@H](CCCNC(=N)N)NC(=O)[C@H]1C` [US20240293587, Compound P2] the figure was 1.7 nM.
